Blank lines part the entries; values can stand above or below the compound they belong to.
Assays:
[1] = Metal chelating activity assessed as iron chelation by CAS assay
[2] = Immunosuppressive activity in Kunming mouse splenocyte assessed as reduction in ConA-stimulated T-lymphocytes proliferation at 20 uM incubated for 72 hrs by CCK-8 assay relative to control; type: functional, T-cell; design: scale not given: the % may be the effect or the level left
[3] = Antioxidant activity assessed as DPPH radical scavenging activity incubated for 20 mins by spectrophotometric method; type: functional
[4] = Antioxidant activity assessed as DPPH radical scavenging activity; type: functional
Acetylcholinesterase [5] = target: T1, Acetylcholinesterase (Homo sapiens, UniProt P22303); experiment: Inhibition of human AchE using acetylthiocholine iodide as substrate incubated for 20 mins by Ellman's assay; settings: read-out: EC50 (the source's name)
RAW264.7 [6] = experiment: Antiinflammatory activity against LPS-induced mouse RAW264.7 cells assessed as reduction in IL-6 mRNA expression at 10 uM by RT-PCR analysis; type: functional; design: scale not given: the % may be the effect or the level left
RAW264.7 [7] = experiment: Anti-inflammatory activity against mouse RAW264.7 cells assessed as inhibition of LPS-induced NO production at 100 ng/ml pretreated with compound for 2 hrs followed by LPS stimulation and measured after 24 hrs by Griess reagent based analysis; type: functional; design: scale not given: the % may be the effect or the level left; settings: time 26 hrs
HeLa = experiment: Cytotoxicity against human HeLa cells assessed as reduction in cell viability measured after 24 hrs by MTT assay; type: functional, cell-based
RAW264.7 [8] = experiment: Anti-inflammatory activity against mouse RAW264.7 cells assessed as inhibition of LPS-induced nitric oxide production at 50 uM preincubated for 2 hrs with compound followed by LPS-stimulation and measured after 24 hrs by Griess reagent based analysis; type: functional, cell-based
SGC-7901 = experiment: Cytotoxicity against human SGC-7901 cells assessed as reduction in cell viability measured after 72 hrs by MTT assay; type: functional, cell-based; settings: SGC-7901, 72 h
[9] = target: Beta-1 adrenergic receptor (Homo sapiens) (UniProt P08588); experiment: Agonist activity at ARbeta1 (unknown origin) expressed in CHO-K1 cells co-expressing G alpha 15 assessed as inhibition of isoproterenol induced calcium response upto 100 uM incubated for 10 mins by calcium mobilization assay relative to control; type: functional, cell-based; design: Activity: scale not given: the % may be the effect or the level left
[10] = target: Tyrosine-protein kinase JAK3 (Homo sapiens, UniProt P52333); experiment: Inhibition of JAK3 (unknown origin) preincubated for 1 hr followed by substrate addition and measured after 1 hr in the presence of ATP by FRET-based Z'-Lyte assay
Cholinesterase = Cholinesterase (Homo sapiens, UniProt P06276); experiment: Inhibition of butyrylcholinesterase (unknown origin)
Acetylcholinesterase [11] = target: T1, Acetylcholinesterase; experiment: Inhibition of AChE (unknown origin) by Ellman's method
Acetylcholinesterase [12] = target: T1, Acetylcholinesterase; experiment: Inhibition of Acetylcholinesterase (unknown origin) using acetylthiocholine iodide as substrate incubated for 20 mins by Ellaman's method
Helicoverpa armigera = experiment: Antifeedant activity against Helicoverpa armigera at 100 uM relative to control; type: functional
MCF7 = experiment: Cytotoxicity against human MCF7 cells assessed as reduction in cell viability measured after 24 hrs by MTT assay; type: functional, cell-based; settings: MCF7, 24 h
[13] = target: Alpha-2B adrenergic receptor (Homo sapiens, UniProt P18089); experiment: Binding affinity to alpha2B receptor (unknown origin) assessed as inhibition constant
[14] = target: Casein kinase I isoform delta (Homo sapiens, UniProt P48730); experiment: Inhibition of N-terminal GST-tagged human recombinant CK1delta (1 to 294 residues) expressed in Escherichia coli incubated for 60 mins in presence of ATP by Kinase-glo luminescent assay
[15] = target: Glycogen synthase kinase-3 beta (Homo sapiens, UniProt P49841); experiment: Inhibition of N-terminal His6-tagged human recombinant GSK3beta expressed in baculovirus-infected Sf21 cells incubated for 60 mins in presence of ATP by ADP-glo analysis
[16] = target: Cyclin-dependent kinase 5/CDK5 activator 1 (Homo sapiens, UniProt Q00535); experiment: Inhibition of N-terminal full length human recombinant CDK5/p25 expressed in baculovirus-infected Sf21 cells incubated for 60 mins in presence of ATP by kinase-glo luminescent assay
Sequence of Cyclin-dependent kinase 5/CDK5 activator 1 (Q00535 whole entry): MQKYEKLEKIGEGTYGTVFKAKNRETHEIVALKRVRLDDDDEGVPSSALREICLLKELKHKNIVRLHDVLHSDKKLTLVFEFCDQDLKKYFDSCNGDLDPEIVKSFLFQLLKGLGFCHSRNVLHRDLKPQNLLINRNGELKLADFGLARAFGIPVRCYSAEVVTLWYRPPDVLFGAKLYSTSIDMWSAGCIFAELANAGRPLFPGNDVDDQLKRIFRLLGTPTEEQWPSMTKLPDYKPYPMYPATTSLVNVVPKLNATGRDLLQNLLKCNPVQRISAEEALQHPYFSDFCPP
Sequence of Cyclin-dependent kinase 5/CDK5 activator 1 (Q15078 whole entry, further chain): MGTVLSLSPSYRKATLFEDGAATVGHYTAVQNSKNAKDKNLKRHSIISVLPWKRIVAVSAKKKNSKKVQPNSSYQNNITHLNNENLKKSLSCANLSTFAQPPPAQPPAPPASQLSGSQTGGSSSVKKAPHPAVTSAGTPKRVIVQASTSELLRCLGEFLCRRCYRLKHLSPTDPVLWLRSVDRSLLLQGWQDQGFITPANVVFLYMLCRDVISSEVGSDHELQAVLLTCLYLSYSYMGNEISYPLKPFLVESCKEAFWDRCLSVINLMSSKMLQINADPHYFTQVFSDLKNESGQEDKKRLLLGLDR

T1 sequence (P22303 whole entry): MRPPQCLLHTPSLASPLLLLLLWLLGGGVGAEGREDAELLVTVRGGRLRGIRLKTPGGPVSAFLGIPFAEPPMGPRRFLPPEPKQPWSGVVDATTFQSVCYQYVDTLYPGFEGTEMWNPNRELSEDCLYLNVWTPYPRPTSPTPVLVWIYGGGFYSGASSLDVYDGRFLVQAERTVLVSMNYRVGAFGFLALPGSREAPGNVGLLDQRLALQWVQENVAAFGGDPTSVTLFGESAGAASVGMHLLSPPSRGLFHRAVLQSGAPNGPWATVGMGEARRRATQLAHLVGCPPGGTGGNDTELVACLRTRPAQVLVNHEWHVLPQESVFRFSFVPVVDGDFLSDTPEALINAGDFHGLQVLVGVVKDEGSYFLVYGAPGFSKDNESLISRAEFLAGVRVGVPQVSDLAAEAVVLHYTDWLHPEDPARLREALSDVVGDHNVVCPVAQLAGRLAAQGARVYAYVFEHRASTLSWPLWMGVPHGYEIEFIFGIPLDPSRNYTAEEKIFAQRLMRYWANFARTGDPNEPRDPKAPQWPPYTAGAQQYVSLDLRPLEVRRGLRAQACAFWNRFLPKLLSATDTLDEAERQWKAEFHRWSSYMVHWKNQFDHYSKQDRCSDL
Sequence of Alpha-2B adrenergic receptor (P18089 whole entry, the tested form may be a part, canonical isoform): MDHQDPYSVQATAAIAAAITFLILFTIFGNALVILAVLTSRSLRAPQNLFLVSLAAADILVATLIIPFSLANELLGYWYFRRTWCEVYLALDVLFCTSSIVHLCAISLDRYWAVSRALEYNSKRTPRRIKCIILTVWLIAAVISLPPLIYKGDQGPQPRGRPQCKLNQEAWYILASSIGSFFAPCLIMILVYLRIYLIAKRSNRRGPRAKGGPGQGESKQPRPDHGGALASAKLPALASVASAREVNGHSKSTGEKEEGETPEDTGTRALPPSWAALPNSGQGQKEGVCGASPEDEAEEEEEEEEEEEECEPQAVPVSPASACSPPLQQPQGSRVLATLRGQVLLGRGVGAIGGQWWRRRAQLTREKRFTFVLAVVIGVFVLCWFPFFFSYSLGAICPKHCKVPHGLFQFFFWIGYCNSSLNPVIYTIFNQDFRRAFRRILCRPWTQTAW
Sequence of Cholinesterase (P06276 whole entry): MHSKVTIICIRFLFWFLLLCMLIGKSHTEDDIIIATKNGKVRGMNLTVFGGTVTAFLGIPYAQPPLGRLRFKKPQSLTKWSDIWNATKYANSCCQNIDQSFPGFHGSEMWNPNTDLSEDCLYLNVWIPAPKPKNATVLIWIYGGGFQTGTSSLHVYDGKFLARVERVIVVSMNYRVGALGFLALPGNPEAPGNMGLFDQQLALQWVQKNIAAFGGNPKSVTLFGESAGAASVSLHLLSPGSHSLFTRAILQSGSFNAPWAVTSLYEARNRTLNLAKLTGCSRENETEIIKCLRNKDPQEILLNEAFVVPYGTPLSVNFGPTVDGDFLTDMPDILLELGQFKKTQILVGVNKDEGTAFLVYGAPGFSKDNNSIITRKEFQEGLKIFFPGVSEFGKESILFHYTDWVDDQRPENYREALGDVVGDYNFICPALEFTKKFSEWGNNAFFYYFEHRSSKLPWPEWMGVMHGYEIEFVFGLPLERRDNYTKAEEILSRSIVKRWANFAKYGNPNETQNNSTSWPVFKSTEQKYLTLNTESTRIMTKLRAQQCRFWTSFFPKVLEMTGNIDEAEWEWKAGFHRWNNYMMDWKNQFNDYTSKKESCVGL
Sequence of Casein kinase I isoform delta (P48730 whole entry, the tested form may be a part, canonical isoform): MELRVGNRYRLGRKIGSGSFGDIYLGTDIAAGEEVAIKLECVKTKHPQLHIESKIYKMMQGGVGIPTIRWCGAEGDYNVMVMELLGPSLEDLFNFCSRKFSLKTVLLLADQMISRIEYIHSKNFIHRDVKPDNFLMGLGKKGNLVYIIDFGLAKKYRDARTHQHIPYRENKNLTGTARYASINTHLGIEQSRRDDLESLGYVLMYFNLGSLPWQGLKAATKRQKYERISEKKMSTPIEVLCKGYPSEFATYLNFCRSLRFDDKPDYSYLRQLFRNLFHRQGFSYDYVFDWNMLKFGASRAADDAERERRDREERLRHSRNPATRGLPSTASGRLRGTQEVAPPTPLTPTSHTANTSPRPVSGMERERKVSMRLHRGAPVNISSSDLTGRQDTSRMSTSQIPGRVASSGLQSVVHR
Sequence of Tyrosine-protein kinase JAK3 (P52333 whole entry): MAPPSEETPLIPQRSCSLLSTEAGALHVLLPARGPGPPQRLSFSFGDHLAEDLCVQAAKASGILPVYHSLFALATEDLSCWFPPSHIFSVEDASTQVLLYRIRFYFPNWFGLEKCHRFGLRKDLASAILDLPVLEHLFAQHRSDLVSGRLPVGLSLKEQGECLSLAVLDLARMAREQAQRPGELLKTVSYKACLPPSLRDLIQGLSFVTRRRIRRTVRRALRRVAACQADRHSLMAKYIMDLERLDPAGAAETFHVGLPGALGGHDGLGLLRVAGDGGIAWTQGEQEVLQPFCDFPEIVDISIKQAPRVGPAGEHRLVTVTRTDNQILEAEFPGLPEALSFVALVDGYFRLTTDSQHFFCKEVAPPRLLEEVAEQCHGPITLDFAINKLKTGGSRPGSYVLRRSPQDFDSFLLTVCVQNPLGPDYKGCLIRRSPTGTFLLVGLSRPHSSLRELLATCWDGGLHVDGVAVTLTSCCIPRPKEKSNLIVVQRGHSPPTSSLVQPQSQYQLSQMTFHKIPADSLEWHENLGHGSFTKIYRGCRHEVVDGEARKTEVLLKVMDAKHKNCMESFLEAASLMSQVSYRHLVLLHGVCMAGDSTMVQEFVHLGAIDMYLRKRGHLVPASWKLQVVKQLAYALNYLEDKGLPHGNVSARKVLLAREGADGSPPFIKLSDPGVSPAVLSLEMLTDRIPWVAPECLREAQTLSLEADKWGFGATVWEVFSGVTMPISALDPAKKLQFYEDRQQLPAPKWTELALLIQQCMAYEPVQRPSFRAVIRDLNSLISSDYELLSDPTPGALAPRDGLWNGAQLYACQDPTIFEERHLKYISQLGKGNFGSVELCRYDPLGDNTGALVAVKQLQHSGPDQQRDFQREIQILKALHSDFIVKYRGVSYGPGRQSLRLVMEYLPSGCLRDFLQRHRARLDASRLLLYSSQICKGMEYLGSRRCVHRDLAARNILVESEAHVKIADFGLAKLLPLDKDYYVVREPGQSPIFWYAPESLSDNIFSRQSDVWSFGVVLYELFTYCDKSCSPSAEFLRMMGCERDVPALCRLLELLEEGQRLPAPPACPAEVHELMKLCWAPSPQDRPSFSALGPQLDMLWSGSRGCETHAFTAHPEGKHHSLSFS
Sequence of Glycogen synthase kinase-3 beta (P49841 whole entry): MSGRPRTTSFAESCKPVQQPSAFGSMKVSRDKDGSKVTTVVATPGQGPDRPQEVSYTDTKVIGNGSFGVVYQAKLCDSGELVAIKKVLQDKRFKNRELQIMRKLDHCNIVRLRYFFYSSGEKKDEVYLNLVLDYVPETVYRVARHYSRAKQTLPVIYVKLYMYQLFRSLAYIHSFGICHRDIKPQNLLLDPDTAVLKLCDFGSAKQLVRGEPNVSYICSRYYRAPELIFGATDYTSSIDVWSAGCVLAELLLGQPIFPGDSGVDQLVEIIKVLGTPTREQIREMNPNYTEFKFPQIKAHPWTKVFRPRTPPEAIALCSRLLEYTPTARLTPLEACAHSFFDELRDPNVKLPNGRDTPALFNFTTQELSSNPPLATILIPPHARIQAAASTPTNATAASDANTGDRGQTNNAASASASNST
Sequence of Beta-1 adrenergic receptor (Homo sapiens) (P08588 whole entry, looked up): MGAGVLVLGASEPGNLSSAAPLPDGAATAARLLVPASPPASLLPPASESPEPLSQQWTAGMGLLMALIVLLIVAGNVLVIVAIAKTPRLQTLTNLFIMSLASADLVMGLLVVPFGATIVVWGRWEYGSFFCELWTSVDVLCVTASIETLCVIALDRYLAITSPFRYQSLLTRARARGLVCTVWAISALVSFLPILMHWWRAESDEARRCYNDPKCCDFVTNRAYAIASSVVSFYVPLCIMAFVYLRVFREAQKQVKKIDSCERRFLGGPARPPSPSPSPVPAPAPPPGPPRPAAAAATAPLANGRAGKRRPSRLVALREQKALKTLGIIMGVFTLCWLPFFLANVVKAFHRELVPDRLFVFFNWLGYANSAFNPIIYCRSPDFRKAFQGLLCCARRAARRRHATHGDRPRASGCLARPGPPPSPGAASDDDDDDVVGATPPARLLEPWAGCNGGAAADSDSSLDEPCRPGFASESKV

EC50 [1]: 4.6 µM
Structure (SMILES): NC[C@H](CCCCNC(=O)c1cccc(O)c1O)NC(=O)c1cccc(O)c1O

Structure (SMILES): CC(=O)NCCc1cc(O)c(O)cc1[C@H](NC(C)=O)C(=O)c1ccc(O)c(O)c1
Activity [2]: 5%

EC50 [3]: 21 µM
Structure (SMILES): COC(=O)[C@@H]1Cc2cc(O)c(O[C@@H]3O[C@H](CO)[C@@H](O)[C@H](O)[C@H]3O)cc2N1C(=O)/C=C/c1ccc(O)c(OC)c1

Structure (SMILES): COc1cc(/C=C/C(=O)n2ccc3cc(O)c(O)cc32)ccc1O
EC50 [4]: 13.9 µM
IC50 (Acetylcholinesterase [5]): 46.8 µM

Structure (SMILES): COc1cc(/C=C/C(=O)O[C@H]2[C@H](OC[C@H]3O[C@@H](Oc4cc5c(cc4O)C[C@@H](C(=O)O)N5C(=O)/C=C/c4ccc(O)c(OC)c4)[C@H](O)[C@@H](O)[C@@H]3O)O[C@H](CO)[C@@H](O[C@@H]3O[C@H](CO)[C@@H](O)[C@H](O)[C@H]3O)[C@@H]2O)ccc1O
Activity (RAW264.7 [6]): 75.6%
Activity (RAW264.7 [7]): 45.2%

Structure (SMILES): Oc1cc2c(cc1O)[C@H](C1=C[C@@]3(O)CC/C=C\CCCCN4CC[C@@H]1[C@]1(C[C@@H]5/C=C\CCCCN5[C@H]13)C4)NCC2
IC50 (HeLa): 5.7 µM

Structure (SMILES): Oc1cc2c(cc1O)[C@@H](C1=C[C@@]3(O)CC/C=C\CCCCN4CC[C@@H]1[C@]1(C[C@@H]5/C=C\CCCCN5[C@H]13)C4)NCC2
IC50 (HeLa): 4.2 µM

IC50 (RAW264.7 [8]): 53.1 µM
Structure (SMILES): O=C(O)[C@@H]1Cc2cc(O)c(O[C@@H]3O[C@H](CO[C@@H]4O[C@H](CO)[C@@H](O)[C@H](O)[C@H]4O)[C@@H](O)[C@H](O)[C@H]3O)cc2N1C(=O)/C=C/c1ccc(O[C@@H]2O[C@H](CO)[C@@H](O)[C@H](O)[C@H]2O)cc1

Structure (SMILES): COc1cc(/C=C/C(=O)O[C@H]2[C@H](OC[C@H]3O[C@@H](Oc4cc5c(cc4O)C[C@@H](C(=O)O)N5C(=O)/C=C/c4ccc(O)c(O[C@@H]5O[C@H](CO)[C@@H](O)[C@H](O)[C@H]5O)c4)[C@H](O)[C@@H](O)[C@@H]3O)O[C@H](CO)[C@@H](O[C@@H]3O[C@H](COC(=O)/C=C/c4cc(OC)c(O)c(OC)c4)[C@@H](O)[C@H](O)[C@H]3O)[C@@H]2O)ccc1O
Activity (RAW264.7 [6]): 63.2%
Activity (RAW264.7 [7]): 22.4%

Structure (SMILES): COc1cc(/C=C/C(=O)OC[C@H]2O[C@@H](O[C@H]3[C@H](O)[C@@H](OC(=O)/C=C/c4ccc(O)c(O)c4)[C@H](OC[C@H]4O[C@@H](Oc5cc6c(cc5O)C[C@@H](C(=O)O)N6C(=O)/C=C/c5ccc(O)cc5)[C@H](O)[C@@H](O)[C@@H]4O)O[C@@H]3CO)[C@H](O)[C@@H](O)[C@@H]2O)ccc1O
Activity (RAW264.7 [6]): 81%
Activity (RAW264.7 [7]): 34.7%

Structure (SMILES): COc1cc2c(cc1O)[C@@H]1Cc3cc(O)c(O)cc3C[N@@+]1(C)CC2
IC50 (SGC-7901): 85.1 µM

EC50 [1]: 30.1 µM
Structure (SMILES): NC[C@H](CCCCNC(=O)c1cccc(O)c1O)N1C(=O)c2c(ccc(O)c2O)[C@@H](c2c[nH]c3ccccc23)[C@]1(O)C(=O)O

EC50 [3]: 37.7 µM
Structure (SMILES): COC(=O)[C@@H]1Cc2cc(O)c(O[C@@H]3O[C@H](CO)[C@@H](O)[C@H](O)[C@H]3O)cc2N1C(=O)/C=C/c1ccc(O)cc1

Activity [9]: 13.7%
Structure (SMILES): OCc1ccc(C2=NCCc3cc(O)c(O)cc32)o1

IC50 [10]: 12.6 µM
Structure (SMILES): Cc1cnc(-c2ccc(O)c(O)c2)c(C)n1

Structure (SMILES): C/C=C(\C)C(=O)O[C@H]1C[C@@H](OC(C)=O)[C@@]2(C(=O)OC)CO[C@H]3[C@@H](O)[C@@](C)([C@]45O[C@@]4(C)[C@H]4C[C@@H]5O[C@@H]5OC=C[C@@]54O)[C@H]4[C@]1(CO[C@]4(O)C(=O)OC)[C@@H]32 [AZADIRACTIN]
EC50 (Cholinesterase): 68.1 µM
EC50 (Acetylcholinesterase [11]): 29.3 µM

Structure (SMILES): O=Cc1ccc2n1CCc1cc(O)c(O)cc1C2
IC50 (Acetylcholinesterase [12]): 58.4 µM

Structure (SMILES): CO[C@H](CNC(=O)/C=C/c1ccc(O)cc1)c1ccc(O)c(O)c1
Activity (Helicoverpa armigera): 61.6%
EC50 (Cholinesterase): 46.9 µM
EC50 (Acetylcholinesterase [11]): 23.1 µM

Structure (SMILES): O=C1CCc2cc(O)c(O)cc2N1
IC50 (MCF7): 20.5 µM

Structure (SMILES): O=C(/C=C/c1ccc(O)cc1)n1ccc2cc(O)c(O)cc21
EC50 [4]: 16.2 µM
IC50 (Acetylcholinesterase [5]): 55.1 µM

Ki [13]: 5.9 µM
Structure (SMILES): COc1cc(CCN(C)C)c2c(c1OC)SC(CCNC(=N)N)(C1=NCCc3cc(O)c(O)cc31)S2 (stereo not drawn)

Ki [13]: 5.9 µM
Structure (SMILES): COc1cc(CCN(C)C)c2c(c1O)SC(CCNC(=N)N)(C1=NCCc3cc(O)c(O)cc31)S2 (stereo not drawn)

IC50 [14]: < 0.2 µM
IC50 [15]: < 0.2 µM
IC50 [16]: < 1.5 µM
Structure (SMILES): O=C1C(c2ccc(O)c(O)c2)=C2C(=C(c3ccc(O)c(O)c3)C(=O)N2CCc2ccc(O)c(O)c2)c2cc(O)c(O)cc21

Source: ChEMBL document CHEMBL5390243, “Catecholamine Derivatives: Natural Occurrence, Structural Diversity, and Biological Activity” (J Nat Prod, 2023)
